The source made the active and inactive calls.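 How the source made its calls: active means tumour findings in long-term animal cancer tests in more than one sex, species or organ; inactive means no tumour finding and more than one negative test.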

This series is described as follows: DSSTox (CPDBAS) Carcinogenic Potency Database Summary MultiCellCall Results. Conditions: animal carcinogenicity bioassays, multi-cell call summary. In outline: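 Summary call drawn from chronic long-term cancer bioassays in rats, mice, hamsters, dogs and nonhuman primates, using the most positive result per sex-species. Score: multispecies=50, multisex=30, multisite=20, summed for combinations.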
`Clc1cc2c(c(Cl)c1Cl)Oc1c(cc(Cl)c(Cl)c1Cl)O2`: the outcome is “active; multisex active; multispecies active”.
To `Brc1cc(Br)c2cccnc2c1` belongs “inactive; multisex inactive”; to `CC(COc1ccc(C(C)(C)C)cc1)OS(=O)OCCCl` (centres undefined), “active; multispecies active”; to `S=c1[nH]c2ccccc2s1`, “active; multisite active; multisex active”.
Turning to `O=[N+]([O-])c1ccc(Cl)c([N+](=O)[O-])c1`, the outcome was “inactive; multisex inactive; multispecies inactive”.
Turning to `[O]=[Mo](=[O])=[O]`, the outcome is “active; multisex active”.
To `OCC(O)CCl` (centres undefined) belongs “inactive; multisex inactive”; to `Nc1c(Cl)cc([N+](=O)[O-])cc1Cl`, “inactive; multisex inactive”; to `O=NN1CCCCCCC1`, “active; multisite active”.
In the case of `CC(=O)NN`, the outcome was “active; multisex active”.
For `ClC(Cl)C(Cl)(Cl)Cl`, the outcome is “active; multisex active”.
Consider `O=C(C1CCCCC1)N1CC(=O)N2CCc3ccccc3C2C1` (centres undefined), for which the outcome was “inactive; multisex inactive; multispecies inactive”.
With `Clc1ccc(-c2ccc(Cl)c(Cl)c2Cl)c(Cl)c1Cl`, the outcome was “active; multisite active; multisex active”.
To `CN(C)C(=S)[S][Pb][S]C(=S)N(C)C` belongs “inactive; multisex inactive; multispecies inactive”; to `O=[N+]([O-])c1ccc2c3c(cccc13)CC2`, “active; multisite active; multisex active; multispecies active”; to `NNC=O`, “active; multisex active”.
Consider `O=P(OC(CCl)CCl)(OC(CCl)CCl)OC(CCl)CCl`, for which the outcome was “active; multisite active; multisex active”.
To `CC(C)NCC(O)c1ccc2ccccc2c1` (centres undefined) belongs “inactive; multisex inactive”; to `O=NN1C[C@H](O)C[C@H]1C(=O)O`, “inactive; multisex inactive”.
Turning to `Clc1ccc(C(c2ccc(Cl)cc2)C(Cl)(Cl)Cl)cc1`, the outcome was “active; multisite active; multisex active; multispecies active”.
As to `C[C@@H]1O[C@@]2(CS1)CN1CCC2CC1`, the outcome was “inactive; multisex inactive”.
Take `CC1CN(N=O)CC(C)N1C` (centres undefined): the outcome was “active; multisite active; multisex active; multispecies active”.
Turning to `CN(C)C(=S)S`, the outcome is “inactive; multisex inactive”.
For the molecule `COc1cc2c(c3oc(=O)c4c(c13)CCC4=O)C1C=COC1O2` (centres undefined), the outcome is “active; multisite active; multisex active; multispecies active”.
With `O=NN(CCCC(F)(F)F)CCCC(F)(F)F`, the outcome was “active; multisite active; multisex active”.
`COc1cc(N)ccc1N=Nc1ccccc1`: the outcome was “inactive; multisex inactive”.
Regarding `ClC/C=C/CCl`, the outcome is “active; multisex active”.
With `ClC(Cl)(Cl)Cl`, the outcome was “active; multisite active; multisex active; multispecies active”.
As to `CCCCCCCCCC[N+](C)(C)[O-]`, the outcome is “inactive; multisex inactive”.
In the case of `CC(=O)NCc1nc(-c2ccc([N+](=O)[O-])o2)no1`, the outcome is “active; multisite active”.
Consider `CC(C)(C)c1cc(C(C)(C)C)c(O)c(C(C)(C)C)c1`, for which the outcome was “inactive; multisex inactive”.
Regarding `O=NN1CCOC1`, the outcome is “active; multisite active; multisex active”.
With `C[N+](C)(C)CCO`, the outcome was “inactive; multispecies inactive”.
For the molecule `Oc1ccc(O)cc1`, the outcome is “active; multisite active; multisex active; multispecies active”.
`CCCCNC(=O)N(CCCC)N=O`: the outcome is “active; multisite active”.
Turning to `CC(=O)Nc1ccc(N=Nc2cc(C)ccc2O)cc1`, the outcome is “active; multisex active; multispecies active”.
To `CCC(Br)(CC)C(=O)NC(N)=O` belongs “inactive; multisex inactive; multispecies inactive”.
For the molecule `O=NN1CCNCC1`, the outcome was “active; multisite active; multisex active”.
To `CN(N=O)C1=Nc2ccc(Cl)cc2C(c2ccccc2)=[N+]([O-])C1` belongs “inactive; multisex inactive”; to `O=P(OCC(Br)CBr)(OCC(Br)CBr)OCC(Br)CBr` (centres undefined), “active; multisite active; multisex active; multispecies active”.
`COC(=O)C(c1ccccc1)C1CCCCN1N=O` (centres undefined): the outcome is “inactive; multisex inactive”.
With `O=NN1CCCN(N=O)CC1`, the outcome was “active; multisite active”.
Turning to `CN=C(NC#N)NCCSCc1nc[nH]c1C`, the outcome is “inactive; multisex inactive; multispecies inactive”.
For the molecule `CCC1(c2ccccc2)C(=O)NCNC1=O`, the outcome was “active; multisite active; multisex active”.
Take `CCO`: the outcome is “active; multisite active”.
Turning to `O=C(OOC(=O)c1ccccc1)c1ccccc1`, the outcome was “inactive; multispecies inactive”.
Consider `CCC1(c2ccccc2)C(=O)NC(=O)NC1=O`, for which the outcome is “active; multisex active”.
To `CC[C@H]1OC(=O)[C@H](C)[C@@H](O[C@H]2C[C@@](C)(OC)[C@@H](O)[C@H](C)O2)[C@H](C)[C@@H](O[C@@H]2O[C@H](C)C[C@H](N(C)C)[C@H]2O)[C@](C)(O)C[C@@H](C)C(=O)[C@H](C)[C@@H](O)[C@]1(C)O` belongs “inactive; multisex inactive; multispecies inactive”; to `CS(=O)(=O)OCCCNCCCOS(C)(=O)=O`, “inactive; multisex inactive; multispecies inactive”; to `O=[N+]([O-])c1ccc(-c2nc(N(CCO)CCO)c3ccccc3n2)s1`, “active; multisite active”.
`CC(=O)C(N=Nc1ccc(Cl)cc1Cl)C(=O)Nc1ccc(-c2ccc(NC(=O)C(N=Nc3ccc(Cl)cc3Cl)C(C)=O)c(C)c2)cc1C` (centres undefined): the outcome is “inactive; multispecies inactive”.
Take `COc1cc(S(C)=O)ccc1-c1nc2ccncc2[nH]1` (centres undefined): the outcome was “active; multisex active”.
As for `CC1CO1` (centres undefined), the outcome is “active; multisite active; multisex active; multispecies active”.
As for `O=S(=O)(Oc1ccc(Cl)cc1Cl)c1ccccc1`, the outcome was “inactive; multisex inactive”.
In the case of `C=CCl`, the outcome was “active; multisite active; multisex active; multispecies active”.
Take `Nc1ccc(NC(=O)c2ccc(N)cc2)cc1`: the outcome was “inactive; multisex inactive”.
Next, `[Cl-].[Cl-].[Sn+2]`: “inactive; multisex inactive; multispecies inactive”.
Regarding `CCCCN(CCCCO)N=O`, the outcome was “active; multisite active; multisex active”.
In the case of `Nc1ccc2nc3ccccn3c2n1`, the outcome was “active; multisite active; multisex active; multispecies active”.
On to `C/C=C/c1ccc2c(c1)OCO2`, for which the outcome is “inactive; multisex inactive”.
Next, `CC(CN1c2ccccc2Sc2ccccc21)N(C)C` (centres undefined): “inactive; multisex inactive; multispecies inactive”; `NCCNc1cccc2ccccc12`: “inactive; multisex inactive; multispecies inactive”; `COC(=O)c1ccc(C(=O)OC)cc1`: “inactive; multisex inactive; multispecies inactive”.
Next, `CN[C@@H](C)[C@H](O)c1ccccc1`: “inactive; multisex inactive; multispecies inactive”; `CN(C)C(=S)[S][Bi]([S]C(=S)N(C)C)[S]C(=S)N(C)C`: “inactive; multisex inactive”; `CC(O)CO` (centres undefined): “inactive; multisex inactive”.
To `c1ccc2sc(SN3CCOCC3)nc2c1` belongs “inactive; multisex inactive”.
For the molecule `O=NN(CCO)CCO`, the outcome is “active; multisite active; multisex active”.
`CC(O)C(=O)O` (centres undefined): the outcome is “inactive; multisex inactive”.
To `O=S1(=O)CCCO1` belongs “active; multisite active; multisex active”; to `CN1C(=O)C[C@@H](C(=O)N[C@@H](Cc2cnc[nH]2)C(=O)N2CCC[C@H]2C(N)=O)NC1=O`, “inactive; multisex inactive; multispecies inactive”.
For `CC(=O)NNC(C)=O`, the outcome is “inactive; multisex inactive”.
As for `CN(C)c1ccc(Cc2ccc(N(C)C)cc2)cc1`, the outcome was “active; multisite active; multisex active; multispecies active”.
As to `N[C@@H](CCC(=O)O)C(=O)O`, the outcome was “inactive; multisex inactive; multispecies inactive”.
`c1ccc2[nH]c(-c3cscn3)nc2c1`: the outcome was “inactive; multisex inactive; multispecies inactive”.
Take `CC(O)COC(C)(C)C` (centres undefined): the outcome was “active; multisex active”.
With `CC(=O)Nc1nnc(-c2ccc([N+](=O)[O-])o2)s1`, the outcome is “active; multisite active; multispecies active”.
Turning to `CC(=O)Oc1c(C)c(C)c2c(c1C)CCC(C)(CCCC(C)CCCC(C)CCCC(C)C)O2` (centres undefined), the outcome was “inactive; multisex inactive”.
Next, `C/C=C(/C)C(=O)O[C@H]1CCN2CC=C(COC(=O)[C@](O)([C@H](C)OC)C(C)(C)O)[C@H]12`: “active; multisite active; multisex active”.
For the molecule `Nc1nc(N)nc(-c2ccccc2)n1`, the outcome is “inactive; multisex inactive; multispecies inactive”.
Regarding `Cc1cc(OC(=O)N(C)C)n(C(C)C)n1`, the outcome is “inactive; multisex inactive”.
On to `Nc1ccc(N)c(Cl)c1`, for which the outcome was “inactive; multisex inactive; multispecies inactive”.
`Nc1nnc(-c2ccc([N+](=O)[O-])o2)s1`: the outcome is “active; multisite active”.
Take `NS(=O)(=O)c1cc2c(cc1Cl)NCNS2(=O)=O`: the outcome is “inactive; multisex inactive; multispecies inactive”.
Consider `COc1cc(/C=C/C(=O)CC(=O)/C=C/c2ccc(O)c(OC)c2)ccc1O`, for which the outcome was “inactive; multisex inactive; multispecies inactive”.
`CC(=O)OC/C=C(C)/C=C/C=C(C)/C=C/C1=C(C)CCCC1(C)C`: the outcome was “active; multisex active”.
In the case of `C[C@H](CCc1ccccc1)NC[C@H](O)c1ccc(O)c(C(N)=O)c1`, the outcome was “inactive; multisex inactive”.
Consider `Nc1ccc(Cc2ccc(N)c(Cl)c2)cc1Cl`, for which the outcome is “active; multisite active; multisex active; multispecies active”.
Consider `CCC[CH2][Sn]([CH2]CCC)([O]C(C)=O)[O]C(C)=O`, for which the outcome was “inactive; multisex inactive; multispecies inactive”.

Source of the values: PubChem BioAssay AID1205 (EPA DSSTox, 2008).
